Measured values reported in patent publication US12016864B2, “LOX enzyme inhibiting methods and compositions” (ANOVIA BIOSCIENCES, INC., priority 2021, dated 2024).

Legend:
[1] = target: T1, Bovine lysyl oxidase (LOX) (Bos taurus, UniProt P33072); test: LOX inhibition assay, fluorometric (cadaverine / HRP / Amplex Red); assay type: biochemical; details: LOX extracted from bovine tendon, 30 min preincubation at 37° C., 5 mM cadaverine; for IC50: read-out: Activity Range LOX
T1 construct: from tissue; host or cells: adult bovine tendon
T1 sequence (P33072 170-418): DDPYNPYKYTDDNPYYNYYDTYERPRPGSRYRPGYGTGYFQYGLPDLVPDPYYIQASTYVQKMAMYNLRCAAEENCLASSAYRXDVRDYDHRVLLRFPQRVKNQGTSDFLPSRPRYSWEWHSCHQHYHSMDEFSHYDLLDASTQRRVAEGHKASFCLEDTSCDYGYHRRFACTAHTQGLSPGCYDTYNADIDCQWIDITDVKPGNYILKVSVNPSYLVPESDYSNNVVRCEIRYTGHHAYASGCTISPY
Protocol: The ability of compounds to inhibit prototypic LOX was determined using a fluorometric assay. This assay measures the activity of lysyl oxidases by coupling the reaction with horseradish peroxidase-catalyzed […]. The activity assay protocol uses cadaverine as substrate that releases hydrogen peroxide upon transformation by prototypic LOX enzyme present in the sample. Hydrogen peroxide was in turn detected using a red fluorescence substrate for HRP-coupled reactions (Amplex Red Enzyme Assays, Thermo Scientific Fisher). This lead to an increase in fluorescence that can be easily detected at Ex/Em=540/590 nm in a fluorescence microplate
Bovine lysyl oxidase (LOX) was extracted by adapting the methodology from [Kagan et al. 1979 and Borel et al. 2001.] from bovine tendon: Frozen adult bovine tendon was placed in room temperature water to defrost, and then membranes were removed and the remaining tissue cut into 1 cm pieces. The material was first passed through a course mesh meat grinder, and this mince was passed through a fine mesh grinder. The mince was homogenized in 10 v/w of buffer (16 mM sodium phosphate buffer pH 7.8, 400 mM NaCl) using a Waring blender. The homogenate was centrifuged at 15,000×g for 15 min at 4° C. After centrifugation, the supernatant was discarded and the pellets resuspended in 10 volumes of the same buffer. The mixture was blended again and centrifuged with the same settings. This time the pellets were blended in 3 volumes of extraction buffer (16 mM sodium phosphate buffer pH 7.8) and left to incubate at 4° C. for 2 h. After this time, the slurry was centrifuged with the same settings as described above. The supernatant was used in an ultrafiltration step to remove large proteins by size exclusion through a 30 kDalton filter (EMD Millipore). The filtrate was mixed with DEAE Sephadex (GE Healthcare), or passed over a MonoQ FPLC column. After two washes, one in 16 mM sodium phosphate buffer pH 7.8, 380 mM NaCl, and another in 16 mM sodium phosphate buffer pH 7.8, the proteins were eluted with 16 mM sodium phosphate pH 7.8, 10 μM CuSO4, and 4 M urea. Fractions containing Lox activity were collected and stored frozen at −70° C.
Final concentration in the LOX assay is shown in Table 6 below and performed in a total volume of […].
7 μl of freshly prepared reaction buffer were delivered to reaction wells. Compounds were resuspended in 100% DMSO at 10 mM and delivered into buffer using acoustic technology (Echo550; nanoliter range). A 2.85× solution of LOX protein in reaction buffer was prepared (“LOX solution”) and 7 μl of LOX solution was added into the reaction wells. Buffer only was added to column 1 for no protein control. Reactions were incubated for 30 minutes at 37° C. A 3.33× mixture of cadaverine, Amplex Red, and HRP (“Substrate/Detection Mix) was prepared and subsequently 6 μL of the mixture was added to each reaction well. Progress of reactions was monitored for 120 minutes at 37° C. using Clariostar plate reader (ex530-12, ems 600-40). For all activity assays, pan-LOX inhibitor CCT365623 (Tang et al, 2017) and LOXL2/LOXL3 inhibitor PAT-1251 (PharmaKea) were included as standards.
The slope of the linear portion of the progress curve was calculated using Clariostar software. Typical analysis interval was between 20-50 min, but varied between experiments. The background subtracted signals (No protein wells were considered as background) were converted to % activity relative to DMSO controls. Data was analyzed using GraphPad Prism 4 with “sigmoidal dose-response (variable slope)”; 4 parameters with Hill Slope. Constraints: Bottom=Constant equal to 0. Top=Must be less than 120.

[2] = target: T2, Recombinant human LOXL2 (lysyl oxidase like 2) (Homo sapiens, UniProt Q9Y4K0); test: LOXL2 inhibition assay, fluorometric (cadaverine / HRP / Amplex Red); assay type: biochemical; details: recombinant human LOXL2 130 nM; 30 min preincubation at 37° C.; 2.5 mM cadaverine; read-out: Activity Range LOXL2
T2 construct: purchased R&D systems
T2 sequence (Q9Y4K0 26-774): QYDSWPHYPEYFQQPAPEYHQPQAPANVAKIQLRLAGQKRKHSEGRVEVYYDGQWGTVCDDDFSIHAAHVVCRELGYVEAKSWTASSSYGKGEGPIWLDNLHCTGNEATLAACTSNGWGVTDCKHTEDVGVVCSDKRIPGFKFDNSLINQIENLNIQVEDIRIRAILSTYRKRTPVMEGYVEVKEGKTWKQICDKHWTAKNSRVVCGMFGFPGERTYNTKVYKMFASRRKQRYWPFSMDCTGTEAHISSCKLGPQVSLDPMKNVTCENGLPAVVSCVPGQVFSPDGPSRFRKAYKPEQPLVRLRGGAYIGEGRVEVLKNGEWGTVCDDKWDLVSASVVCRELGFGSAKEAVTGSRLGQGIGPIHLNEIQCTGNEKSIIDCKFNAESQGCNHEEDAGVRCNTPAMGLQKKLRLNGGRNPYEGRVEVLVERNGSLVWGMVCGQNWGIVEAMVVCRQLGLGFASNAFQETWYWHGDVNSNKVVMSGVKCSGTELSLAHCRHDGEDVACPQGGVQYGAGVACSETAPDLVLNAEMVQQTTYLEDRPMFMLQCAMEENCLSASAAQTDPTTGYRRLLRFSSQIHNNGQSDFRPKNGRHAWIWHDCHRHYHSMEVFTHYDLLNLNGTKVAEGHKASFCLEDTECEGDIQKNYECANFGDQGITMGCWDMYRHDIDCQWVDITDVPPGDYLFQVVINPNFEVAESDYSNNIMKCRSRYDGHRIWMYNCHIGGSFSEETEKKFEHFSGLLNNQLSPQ
Protocol: The ability of compounds to inhibit one or more of the lysyl oxidases LOXL2 and/or LOXL3 was determined using a fluorometric assay. This assay measures the activity of lysyl oxidases by coupling the reaction with horseradish peroxidase-catalyzed […]. The activity assay protocol uses cadaverine as substrate that releases hydrogen peroxide upon transformation by the specific LOX family enzyme present in the sample. Hydrogen peroxide is in turn detected using a red fluorescence substrate for HRP-coupled reactions (Amplex Red Enzyme Assays, Thermo Scientific Fisher). This leads to increase in fluorescence that can be easily detected at Ex/Em=540/590 nm in a fluorescence microplate reader.
Recombinant human LOXL2 (lysyl oxidase like 2) and recombinant human LOXL3 (lysyl oxidase like 3) were purchased from R&D systems and assays were performed in 1.2 M urea, 50 mM sodium borate buffer pH 8.0, and 10 mM CaCl.
5 μl of freshly prepared reaction buffer were delivered to reaction wells. Compounds were resuspended in 100% DMSO at 10 mM and delivered into buffer using acoustic technology (Echo550; nanoliter range). A 3× solution of LOXL2 or LOXL3 in reaction buffer was prepared (“enzyme solution”) and 5 μL of enzyme solution was added into the reaction wells. Buffer only was added to column 1 for no protein control. Reactions were incubated for 30 minutes at 37° C. A 3× mixture of cadaverine, Amplex Red, and HRP (“Substrate/Detection Mix) was prepared and subsequently 5 μL of the mixture added to each reaction well. Progress of reactions was monitored for 60 minutes at 37° C. using Clariostar plate reader (ex 530-12, ems 600-40). For all activity assays, pan-LOX inhibitor CCT365623 (Tang et al, 2017) and LOXL2/LOXL3 inhibitor PAT-1251 (PharmaKea) were included as standards.
For the data analysis, the slope of the linear portion of the progress curve was calculated using Clariostar software. Typical analysis interval was between 8-30 min, but varied between experiments. The background-subtracted signals (No protein wells are considered as background) were converted to % activity relative to DMSO controls. Data was analyzed using GraphPad Prism 4 with “sigmoidal dose-response (variable slope)”; 4 parameters with Hill Slope. Constraints: Bottom=Constant equal to 0. Top=Must be less than 120.

SMILES | IC50 [1] [µM] | IC50 [2] [µM] | Activity Range LOX [1]
CS(=O)(=O)N1C[C@@H](c2ccccc2)C[C@H]1CS(=O)(=O)c1ccc(CN)cc1 (racemic) [Example 26, cis-(4-(((1-(Methylsulfonyl)-4-phenylpyrrolidin-2-yl)methyl)sulfonyl)phenyl)methanamine 2,2,2-trifluoroacetate] | 1 to 30 | ≤ 0.5 | –
CS(=O)(=O)N1C[C@@H](c2ccccc2)C[C@H]1CS(=O)(=O)c1cccc(CN)c1 (racemic) [Example 27, cis-(3-(((1-(Methylsulfonyl)-4-phenylpyrrolidin-2-yl)methyl)sulfonyl)phenyl)methanamine 2,2,2-trifluoroacetate] | 1 to 30 | ≤ 0.5 | –
NCc1ccnc(S(=O)(=O)C[C@@H]2C[C@H](c3ccccc3F)CN2S(=O)(=O)N2CCOCC2)c1 (racemic) [Example 203, cis-(2-(((4-(2-fluorophenyl)-1-(morpholinosulfonyl)pyrrolidin-2-yl)methyl)sulfonyl)pyridin-4-yl)methanamine 2,2,2-trifluoroacetate] | 1 to 30 | ≤ 0.5 | –
NCc1ccnc(S(=O)(=O)C[C@@H]2C[C@H](c3ccc(F)cc3)CN2S(=O)(=O)N2CCOCC2)c1 (racemic) [Example 204, cis-(2-(((4-(4-fluorophenyl)-1-(morpholinosulfony1)pyrrolidin-2-yl)methyl)sulfonyl)pyridin-4-yl)methanamine 2,2,2-trifluoroacetate] | 1 to 30 | ≤ 0.5 | –
NCc1ccnc(S(=O)(=O)C[C@@H]2C[C@H](c3ccc(F)cc3)CN2S(=O)(=O)N2CCS(=O)(=O)CC2)c1 (racemic) [Example 206, cis-4-((2-(((4-(Aminomethyl)pyridin-2-yl)sulfonyl)methyl)-4-(4-fluorophenyl)pyrrolidin-1-yl)sulfonyl)thiomorpholine 1,1-dioxide 2,2,2-trifluoroacetate] | 1 to 30 | ≤ 0.5 | –
NCc1ccc(S(=O)(=O)C[C@@H]2C[C@H](c3ccccc3F)CN2S(=O)(=O)N2CCOCC2)s1 (racemic) [Example 207, cis-(5-(((4-(2-Fluorophenyl)-1-(morpholinosulfonyl)pyrrolidin-2-yl)methyl)sulfonyl)thiophen-2-yl)methanamine 2,2,2-trifluoroacetate] | ≤ 0.5 | ≤ 0.5 | –
NCc1ccc(S(=O)(=O)C[C@@H]2C[C@H](c3ccc(F)cc3)CN2S(=O)(=O)N2CCOCC2)s1 (racemic) [Example 208, cis-(5-(((4-(4-Fluorophenyl)-1-(morpholinosulfonyl)pyrrolidin-2-yl)methyl)sulfonyl)thiophen-2-yl)methanamine 2,2,2-trifluoroacetate] | ≤ 0.5 | ≤ 0.5 | –
NCc1ccc(S(=O)(=O)C[C@@H]2C[C@H](c3ccc(F)cc3)CN2S(=O)(=O)N2CCS(=O)(=O)CC2)s1 (racemic) [Example 210, cis-4-((2-(((5-(Aminomethyl)thiophen-2-yl)sulfonyl)methyl)-4-(4-fluorophenyl)pyrrolidin-1-yl)sulfonyl)thiomorpholine 1,1-dioxide 2,2,2-trifluoroacetate] | 1 to 30 | ≤ 0.5 | –
NCc1ccnc(OC[C@@H]2C[C@H](c3ccc(F)cc3)CN2S(=O)(=O)N2CCOCC2)c1 (racemic) [Example 212, cis-(2-((4-(4-Fluorophenyl)-1-(morpholinosulfonyl)pyrrolidin-2-yl)methoxy)pyridin-4-yl)methanamine 2,2,2-trifluoroacetate] | 1 to 30 | ≤ 0.5 | –
NCc1ccnc(OC[C@@H]2C[C@H](c3ccc(F)cc3)CN2S(=O)(=O)N2CCS(=O)(=O)CC2)c1.O=C(O)C(F)(F)F (racemic) [Example 214, cis-((2-(((4-(Aminomethyl)pyridin-2-yl)oxy)methyl)-4-(4-fluorophenyl)pyrrolidin-1-yl)sulfonyl)thiomorpholine 1,1-dioxide 2,2,2-trifluoroacetate] | – | ≤ 0.5 | Inactive
NCc1cccc(OC[C@@H]2C[C@H](c3ccc(F)cc3)CN2S(=O)(=O)N2CCOCC2)c1.O=C(O)C(F)(F)F (racemic) [Example 216, cis-(3-((4-(4-Fluorophenyl)-1-(morpholinosulfonyl)pyrrolidin-2-yl)methoxy)phenyl)methanamine 2,2,2-trifluoroacetate] | – | 0.5 to 1 | Inactive
NCc1cccc(OC[C@@H]2C[C@H](c3ccc(F)cc3)CN2S(=O)(=O)N2CCS(=O)(=O)CC2)c1 (racemic) [Example 218, cis-4-((2-((3-(Aminomethyl)phenoxy)methyl)-4-(4-fluorophenyl)pyrrolidin-1-yl)sulfonyl)thiomorpholine 1,1-dioxide] | 1 to 30 | ≤ 0.5 | –
